Results from patent publication US8623857B2, “N-phenyl imidazole carboxamide inhibitors of 3-phosphoinositide-dependent protein kinase-1” (Merck Sharp & Dohme Corp., priority 2010, dated 2014).

Target: T1, recombinant human PDK1 (Homo sapiens, UniProt O15530)
T1 construct: containing amino acids 51-556 of the human PDK1 enzyme; made in house; host or cells: Sf9 insect cells
T1 sequence (O15530 51-556): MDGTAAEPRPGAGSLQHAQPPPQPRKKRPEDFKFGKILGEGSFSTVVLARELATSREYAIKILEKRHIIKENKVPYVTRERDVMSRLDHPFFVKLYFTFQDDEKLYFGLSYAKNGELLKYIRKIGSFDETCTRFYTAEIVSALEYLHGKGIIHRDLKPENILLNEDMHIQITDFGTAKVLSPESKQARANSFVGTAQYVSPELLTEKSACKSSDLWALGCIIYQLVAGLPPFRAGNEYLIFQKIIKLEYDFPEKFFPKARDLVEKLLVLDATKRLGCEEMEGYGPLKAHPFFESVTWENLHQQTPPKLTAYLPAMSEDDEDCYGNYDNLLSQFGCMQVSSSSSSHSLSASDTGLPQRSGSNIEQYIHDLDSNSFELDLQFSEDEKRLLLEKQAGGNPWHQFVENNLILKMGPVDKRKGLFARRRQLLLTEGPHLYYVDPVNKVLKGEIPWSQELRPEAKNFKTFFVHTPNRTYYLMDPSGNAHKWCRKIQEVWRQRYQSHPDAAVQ
Assay: PDK1 IMAP fluorescence polarization assay (inhibition of peptide substrate phosphorylation)
Type: biochemical
Conditions: Table 6; 10 nM PDK1 enzyme, 100 nM peptide substrate, 100 nM PIFtide, 2.5 uM ATP, 1.5 hours

Row | Structure (SMILES) | IC50 [µM]
1 | NCC1CCN(c2c(F)cccc2NC(=O)c2nc(-c3cc(N[C@@H](CO)c4ccccc4)nc(N)n3)c[nH]2)CC1 [Compound 72, 4-[2-amino-6-[[2-hydroxy-1(R)-phenylethyl]amino]-4-pyrimidinyl]-N-[2-[4-(aminomethyl)-1-piperidinyl]-3-fluorophenyl]-1H-imidazole-2-carboxamide] | 0.001 to 0.05
2 | NCC1CCN(c2c(F)cccc2NC(=O)c2nc(-c3cc(NCc4ccc(F)cc4)ncn3)c[nH]2)CC1 [Compound 73, N-[2-[4-(aminomethyl)-1-piperidinyl]-3-fluorophenyl]-4-[6-[[(4-fluorophenyl)methyl]amino]-4-pyrimidinyl]-1H-imidazole-2-carboxamide] | 0.051 to 0.25
3 | NCC1CCN(c2c(F)cccc2NC(=O)c2nc(-c3cc(NCc4ccc(F)c(F)c4)ncn3)c[nH]2)CC1 [Compound 74, N-[2-[4-(aminomethyl)-1-piperidinyl]-3-fluorophenyl]-4-[6-[[(3,4-difluorophenyl)methyl]amino]-4-pyrimidinyl]-1H-imidazole-2-carboxamide] | 0.051 to 0.25
4 | NCC1CCN(c2c(F)cccc2NC(=O)c2nc(-c3cc(NCc4ccc(F)c(F)c4)nc(N)n3)c[nH]2)CC1 [Compound 75, 4-[2-amino-6-[[(3,4-difluorophenyl)methyl]amino]-4-pyrimidinyl]-N-[2-[4-(aminomethyl)-1-piperidinyl]-3-fluorophenyl]-1H-imidazole-2-carboxamide] | 0.001 to 0.05
5 | COc1ccc(CNc2cc(-c3c[nH]c(C(=O)Nc4cccc(F)c4N4CCC(CN)CC4)n3)nc(N)n2)cc1OC [Compound 76, 4-[2-amino-6-[[(3,4-dimethoxyphenyl)methyl]amino]-4-pyrimidinyl]-N-[2-[4-(aminomethyl)-1-piperidinyl]-3-fluorophenyl]-1H-imidazole-2-carboxamide] | 0.251 to 1
6 | NCC1CCN(c2c(F)cccc2NC(=O)c2nc(-c3cc(N[C@H](CO)c4ccccc4)nc(N)n3)c[nH]2)CC1 [Compound 77, 4-[2-amino-6-[(2-hydroxy-1(S)-phenylethyl)amino]-4-pyrimidinyl]-N-[2-[4-(aminomethyl)-1-piperidinyl]-3-fluorophenyl]-1H-imidazole-2-carboxamide] | 0.001 to 0.05
7 | Cc1cc(-c2c[nH]c(C(=O)Nc3cccc(F)c3N3CCC(C(=O)N4CC5CCC(C4)O5)CC3)n2)ccn1 [Compound 78, N-[3-fluoro-2-[4-(8-oxa-3-azabicyclo[3.2.1]oct-3-ylcarbonyl)-1-piperidinyl]phenyl]-4-(2-methyl-4-pyridinyl)-1H-imidazole-2-carboxamide] | 0.251 to 1
8 | Cc1cc(-c2c[nH]c(C(=O)Nc3cccc(F)c3N3CCC(C(=O)N4CC5CC4CO5)CC3)n2)ccn1 (stereo not drawn) [Compound 79, N-[3-fluoro-2-[4-(2-oxa-5-azabicyclo[2.2.1]hept-5-ylcarbonyl)-1-piperidinyl]phenyl]-4-(2-methyl-4-pyridinyl)-1H-imidazole-2-carboxamide] | 1 to 5
9 | Cc1cc(-c2c[nH]c(C(=O)Nc3cccc(F)c3N3CCC(C(=O)N4CCOCC4CO)CC3)n2)ccn1 (stereo not drawn) [Compound 80, N-[3-fluoro-2-[4-[[3-(hydroxymethyl)-4-morpholinyl]carbonyl]-1-piperidinyl]phenyl]-4-(2-methyl-4-pyridinyl)-1H-imidazole-2-carboxamide] | 0.251 to 1

Next, values leading:

Row | IC50 [µM] | Structure (SMILES)
10 | 0.051 to 0.25 | Cc1cc(-c2c[nH]c(C(=O)Nc3cccc(F)c3N3CCC(C(=O)N4CCOCC4CN)CC3)n2)ccn1 (stereo not drawn) [Compound 81, N-[2-[4-[[3-(aminomethyl)-4-morpholinyl]carbonyl]-1-piperidinyl]-3-fluorophenyl]-4-(2-methyl-4-pyridinyl)-1H-imidazole-2-carboxamide]
11 | 1 to 5 | Cc1cc(-c2c[nH]c(C(=O)Nc3cccc(F)c3N3CCC(C(N)=O)CC3)n2)ccn1 [Compound 82, 1-[2-fluoro-6-[[[4-(2-methyl-4-pyridinyl)-1H-imidazol-2-yl]carbonyl]amino]phenyl]-4-piperidinecarboxamide]
12 | 0.051 to 0.25 | Cc1cc(-c2c[nH]c(C(=O)Nc3cccc(F)c3N3CCC(C(=O)NCCN)CC3)n2)ccn1 [Compound 83, N-(2-aminoethyl)-1-[2-fluoro-6-[[[4-(2-methyl-4-pyridinyl)-1H-imidazol-2-yl]carbonyl]amino]phenyl]-4-piperidinecarboxamide]
13 | 0.051 to 0.25 | Cc1cc(-c2c[nH]c(C(=O)Nc3cccc(F)c3N3CCC(C(=O)NC4CCCCC4N)CC3)n2)ccn1 (stereo not drawn) [Compound 84, N-(2-aminocyclohexyl)-1-[2-fluoro-6-[[[4-(2-methyl-4-pyridinyl)-1H-imidazol-2-yl]carbonyl]amino]phenyl]-4-piperidinecarboxamide]
14 | 0.251 to 1 | CNCCCCNC(=O)C1CCN(c2c(F)cccc2NC(=O)c2nc(-c3ccnc(C)c3)c[nH]2)CC1 [Compound 85, 1-[2-fluoro-6-[[[4-(2-methyl-4-pyridinyl)-1H-imidazol-2-yl]carbonyl]amino]phenyl]-N-[4-(methylamino)butyl]-4-piperidinecarboxamide]
15 | 0.251 to 1 | CCNCCNC(=O)C1CCN(c2c(F)cccc2NC(=O)c2nc(-c3ccnc(C)c3)c[nH]2)CC1 [Compound 86, N-[2-(ethylamino)ethyl]-1-[2-fluoro-6-[[[4-(2-methyl-4-pyridinyl)-1H-imidazol-2-yl]carbonyl]amino]phenyl]-4-piperidinecarboxamide]
16 | 0.051 to 0.25 | Cc1cc(-c2c[nH]c(C(=O)Nc3cccc(F)c3N3CCC(C(=O)NCC4(N)CCCC4)CC3)n2)ccn1 [Compound 88, N-[(1-aminocyclopentyl)methyl]-1-[2-fluoro-6-[[[4-(2-methyl-4-pyridinyl)-1H-imidazol-2-yl]carbonyl]amino]phenyl]-4-piperidinecarboxamide]
17 | 0.051 to 0.25 | Cc1cc(-c2c[nH]c(C(=O)Nc3cccc(F)c3N3CCC(C(=O)N4CCOC(CN)C4)CC3)n2)ccn1 (stereo not drawn) [Compound 89, N-[2-[4-[[2-(aminomethyl)-4-morpholinyl]carbonyl]-1-piperidinyl]-3-fluorophenyl]-4-(2-methyl-4-pyridinyl)-1H-imidazole-2-carboxamide]
18 | 0.251 to 1 | Cc1cc(-c2c[nH]c(C(=O)Nc3cccc(F)c3N3CCC(C(=O)N4CCOC(CCO)C4)CC3)n2)ccn1 (stereo not drawn) [Compound 90, N-[3-fluoro-2-[4-[[2-(2-hydroxyethyl)-4-morpholinyl]carbonyl]-1-piperidinyl]phenyl]-4-(2-methyl-4-pyridinyl)-1H-imidazole-2-carboxamide]
19 | 0.051 to 0.25 | Cc1cc(-c2c[nH]c(C(=O)Nc3cccc(F)c3N3CCC(C(=O)N4CC5CNC(C5)C4)CC3)n2)ccn1 (stereo not drawn) [Compound 91, N-[2-[4-(3,6-diazabicyclo[3.2.1]oct-3-ylcarbonyl)-1-piperidinyl]-3-fluorophenyl]-4-(2-methyl-4-pyridinyl)-1H-imidazole-2-carboxamide]
20 | 1 to 5 | Cc1cc(-c2c[nH]c(C(=O)Nc3cccc(F)c3N3CCC(C(=O)N4CC[C@@H](F)C4)CC3)n2)ccn1 [Compound 92, N-[3-fluoro-2-[4-[(3(R)-fluoro-1-pyrrolidinyl)carbonyl]-1-piperidinyl]phenyl]-4-(2-methyl-4-pyridinyl)-1H-imidazole-2-carboxamide]
21 | 0.251 to 1 | Cc1cc(-c2c[nH]c(C(=O)Nc3cccc(F)c3N3CCC(C(=O)N4CCC5(CC4)CNC(=O)C5)CC3)n2)ccn1 [Compound 93, N-[3-fluoro-2-[4-[(3-oxo-2,8-diazaspiro[4.5]dec-8-yl)carbonyl]-1-piperidinyl]phenyl]-4-(2-methyl-4-pyridinyl)-1H-imidazole-2-carboxamide]
